Read-outs that look alike come from different tables or passages of the source.
Experiments:
[1] = target: T1, recombinant purified intestinal CES2 (Homo sapiens, UniProt O00748); assay: CES2 enzyme assay (4-nitrophenyl acetate hydrolysis); assay type: biochemical
T1 construct: purchased Sigma Aldrich E0412
T1 sequence (O00748 27-559): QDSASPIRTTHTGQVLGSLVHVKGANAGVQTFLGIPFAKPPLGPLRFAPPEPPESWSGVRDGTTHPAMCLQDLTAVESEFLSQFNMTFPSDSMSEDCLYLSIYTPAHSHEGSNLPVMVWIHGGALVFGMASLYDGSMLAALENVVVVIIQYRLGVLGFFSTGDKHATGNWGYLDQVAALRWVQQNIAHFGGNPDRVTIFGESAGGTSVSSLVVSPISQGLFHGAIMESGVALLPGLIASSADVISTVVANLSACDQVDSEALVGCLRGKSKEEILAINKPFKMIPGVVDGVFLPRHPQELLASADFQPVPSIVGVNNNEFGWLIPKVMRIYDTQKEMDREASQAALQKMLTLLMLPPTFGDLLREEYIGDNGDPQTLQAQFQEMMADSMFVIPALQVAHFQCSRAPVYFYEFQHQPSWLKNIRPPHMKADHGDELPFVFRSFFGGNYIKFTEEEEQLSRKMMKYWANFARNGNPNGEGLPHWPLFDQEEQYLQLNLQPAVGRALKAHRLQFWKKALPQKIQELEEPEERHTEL
Description: CES2 and CES1 enzyme assays were used for primary screening and IC50 determination of potential inhibitors. […] The esterase substrate, 4 nitrophenyl acetate (4 NPA), was used to detect enzyme activity. The recombinant purified intestinal CES2 and human liver CES1 enzymes and 4 NPA were purchased from Sigma Aldrich (product ID E0412, E0162, and N8130, respectively). […] The assays were conducted in a total volume of 300 μL in 96 well microtiter plates. Reaction mixtures consisted of the following: 100 μL 50 mM HEPES with 10 units of enzyme, 10 μL compound solution (various concentrations), 2 μL 300 mM 4 NPA and 188 μL 50 mM HEPES, pH 7.4. The test compound and 4 NPA solution were added to the wells first and then the reaction was initiated by the addition of enzyme solution. After incubation for 15 min. at 25° C., absorbance at 405 nm was measured using a microplate reader.

human liver CES1 = target: T2, human liver CES1 (Homo sapiens, UniProt P23141); assay: CES1 enzyme assay (4-nitrophenyl acetate hydrolysis); assay type: biochemical; conditions: for inhibition of CES1: concentrations as high as 300 μM
T2 construct: purchased Sigma Aldrich E0162
T2 sequence (P23141 18-567): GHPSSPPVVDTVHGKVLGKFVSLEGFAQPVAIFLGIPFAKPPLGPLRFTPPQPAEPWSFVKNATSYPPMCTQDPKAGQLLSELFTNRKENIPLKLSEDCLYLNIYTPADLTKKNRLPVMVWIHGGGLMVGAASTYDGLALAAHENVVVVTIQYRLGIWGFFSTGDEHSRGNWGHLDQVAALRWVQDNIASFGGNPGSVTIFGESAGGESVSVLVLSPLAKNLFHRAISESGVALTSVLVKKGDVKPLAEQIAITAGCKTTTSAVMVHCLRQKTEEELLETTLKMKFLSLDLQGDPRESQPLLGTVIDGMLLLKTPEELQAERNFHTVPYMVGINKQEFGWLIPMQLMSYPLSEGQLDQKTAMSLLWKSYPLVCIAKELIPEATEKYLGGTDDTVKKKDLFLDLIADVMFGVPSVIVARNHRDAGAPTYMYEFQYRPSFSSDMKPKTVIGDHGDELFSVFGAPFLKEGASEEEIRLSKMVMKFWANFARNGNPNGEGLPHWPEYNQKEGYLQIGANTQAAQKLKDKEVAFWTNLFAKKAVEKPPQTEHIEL
Description: CES2 and CES1 enzyme assays were used for primary screening and IC50 determination of potential inhibitors. The assays are well established and widely used in compound discovery and lead optimization for CES inhibitors. See, e.g., Wadkins et al. 2004, Mol. Pharmacol. 65(6):1336 1343; Wadkins et al. 2005, J. Med. Chem. 48(8):2906 2915; Hicks et al. 2009, J. Med. Chem. 52(12):3742 3752; Hyatt et al. 2007, J. Med. Chem. 50(8):1876 1885; Hicks et al. 2007, Bioorg. Med. Chem. 15(11):3801 3817; Hyatt et al. 2007, J. Med. Chem., 50(23):5727 5734; Wadkins et al. 2007, Mol. Pharmacol. 71(3):713 723; and Young et al. 2010, J. Med. Chem., 53(24):8709 8715. CES converts esters into the corresponding alcohol and carboxylic acid. The esterase substrate, 4 nitrophenyl acetate (4 NPA), was used to detect enzyme activity. The recombinant purified intestinal CES2 and human liver CES1 enzymes and 4 NPA were purchased from Sigma Aldrich (product ID E0412, E0162, and N8130, respectively). […] The assays were conducted in a total volume of 300 μL in 96 well microtiter plates. Reaction mixtures consisted of the following: 100 μL 50 mM HEPES with 10 units of enzyme, 10 μL compound solution (various concentrations), 2 μL 300 mM 4 NPA and 188 μL 50 mM HEPES, pH 7.4. The test compound and 4 NPA solution were added to the wells first and then the reaction was initiated by the addition of enzyme solution. After incubation for 15 min. at 25° C., absorbance at 405 nm was measured using a microplate reader.

[2] = test system: CT 26 tumor bearing Balb/cJ mice; assay: In vivo testing of anti-diarrheal activity with CPT-11 in tumor bearing mice (Example 3); conditions: for anti-tumor efficacy, as evaluated by tumor growth, versus CPT-11 only group / losses in body weight induced by CPT-11 treatment / survival rates as compared to CPT-11 alone: 40 mg/kg orally with CPT-11 50 mg/kg i.p.; for anti-tumor efficacy, as evaluated by tumor growth, versus CPT-11 only group: FIG. 1A; for losses in body weight induced by CPT-11 treatment: FIG. 1B at 14-16 days of treatment; for survival rates as compared to CPT-11 alone: FIG. 1C; for day on which diarrhea occurred: CPT-11 50 mg/kg i.p., CES2 inhibitor (if any) 40 mg/kg orally; for Percentage of mice having diarrhea: CPT-11 50 mg/kg i.p. day 1-10, CES2 inhibitor (if any) 40 mg/kg orally day 0-11
Description: CPT-11 was purchased from Selleck Chemicals. To obtain an injectable formulation, CPT-11 (20 mg/mL) was dissolved in a solution containing D sorbitol (45 mg/mL) and D lactic acid (0.9 mg/mL) in ddH2O, and heated to ˜70° C. to 90° C. for 5 to 10 min See Trifan et al. 2002, Cancer Res., 62(20):5778 5784. The pH of the solution was adjusted to 3.5 prior to sterile filtration. The solution was stored protected from light until just prior to administration.
Each of these compounds was dissolved separately in 100% DMSO and then diluted into a 0.5% carboxymethylcellulose solution. The final concentration of DMSO was less than 1%.
(§1) Healthy 6-8 week old female Balb/cJ mice were obtained from Jackson Laboratories (Bar Harbor, Me. USA). CT 26 tumor cells, derived from a murine Balb/c colon adenocarcinoma, were used to form tumors by subcutaneous injection of tumor cells into the posterior mid-dorsum of the mice. When tumors reached ˜500 mm^3 (˜10 days after implantation, defined as day 1), treatment was initiated. The mice were divided into five groups of 3-4 animals each and treated as follows:
(1) Vehicle group, mice received an equivalent volume of CPT-11 vehicle i.p. from day 1 to day 10, and an equivalent volume of compound vehicle orally from day 0 to day 11;
(2) CPT-11 only group, mice received CPT-11 (50 mg/kg) i.p. from day 1 to day 10, and an equivalent volume of compound vehicle orally from day 0 to day 11;
CPT-11 and the CES2 inhibitors were each administrated once per day during the experiment.
The CES2 inhibitor treatment groups were compared to the CPT-11 only group and to the vehicle control group. Four major parameters were examined to quantify the effect of CES2 inhibitors, namely, body weight change, presence of diarrhea, survival time, and average tumor size.

[3] = test system: CT 26 tumor bearing Balb/cJ mice; assay: In vivo efficacy of CPT-11 plus hesperetin at different doses (Example 4); conditions: for Percentage of mice having diarrhea: CPT-11 alone
Description: as §1

[4] = 4 NPA substrate, 15 min at 25° C., pH 7.4, read-out: IC50 CES1 Assay
[5] = both hesperetin doses (20 mg/kg and 100 mg/kg) with CPT-11

Q: `O=C(/C=C/c1ccccc1)c1ccc(O)cc1O` [2′,4′ dihydroxychalcone, 2′,4′-dihydroxychalcone] was tested. Which “Selectivity (IC50 CES1)/(IC50 CES2)” value [1] did it give?
A: >180

Q: And the IC50 ([1]; 4 NPA substrate, 15 min at 25° C., pH 7.4)?
A: 1.66 µM

Q: What about the IC50 (human liver CES1; [4]) of the same compound?
A: > 300 µM

Q: What about the “inhibition of CES1” value (human liver CES1) of the same compound?
A: No significant inhibition

Q: And the “anti-tumor efficacy, as evaluated by tumor growth, versus CPT-11 only group” value (from here on “anti-tumor efficacy … versus CPT-11 only group”) [2]?
A: No significant changes

Q: What about the “losses in body weight induced by CPT-11 treatment” value [2] of the same compound?
A: reversed

Q: And the “survival rates as compared to CPT-11 alone” value [2]?
A: improved

Q: And the “day on which diarrhea occurred” value [2]?
A: 13 days

Q: What about the “Percentage of mice having diarrhea” value ([2]; day 12 after treatment) of the same compound?
A: no mice

Q: With `CCc1c2c(nc3ccc(OC(=O)N4CCC(N5CCCCC5)CC4)cc13)-c1cc3c(c(=O)n1C2)COC(=O)[C@]3(O)CC` [CPT-11, irinotecan] as the compound, how does the “day on which diarrhea occurred” value [2] read?
A: 9 days

Q: And the “Percentage of mice having diarrhea” value ([2]; day 9 after treatment)?
A: 50%

Q: And the “Percentage of mice having diarrhea” value ([2]; day 10 after treatment)?
A: 50%

Q: What about the “Percentage of mice having diarrhea” value ([2]; day 11 after treatment) of the same compound?
A: 75%

Q: What about the “Percentage of mice having diarrhea” value ([2]; day 12 after treatment) of the same compound?
A: 75%

Q: And the “Percentage of mice having diarrhea” value ([2]; day 13 after treatment)?
A: 75%

Q: And the “Percentage of mice having diarrhea” value ([2]; day 14 after treatment)?
A: 75%

Q: And the “Percentage of mice having diarrhea” value ([3]; day 8 after treatment)?
A: 10%

Q: What about the “Percentage of mice having diarrhea” value ([3]; day 9 after treatment) of the same compound?
A: 20%

Q: And the “Percentage of mice having diarrhea” value ([3]; day 10 after treatment)?
A: 40%

Q: And the “Percentage of mice having diarrhea” value ([3]; day 11 after treatment)?
A: 70%

Q: And the “Percentage of mice having diarrhea” value ([3]; day 12 after treatment)?
A: 70%

Q: How did the IC50 (human liver CES1) turn out when `COc1ccc([C@@H]2CC(=O)c3c(O)cc(O)cc3O2)cc1O` [hesperetin] was run?
A: > 300 µM

Q: And the “inhibition of CES1” value (human liver CES1)?
A: No significant inhibition

Q: What about the “anti-tumor efficacy … versus CPT-11 only group” value [2] of the same compound?
A: No significant changes

Q: What about the “losses in body weight induced by CPT-11 treatment” value [2] of the same compound?
A: reversed

Q: What about the “survival rates as compared to CPT-11 alone” value [2] of the same compound?
A: improved

Q: And the “day on which diarrhea occurred” value [2]?
A: 12 days

Q: And the “Percentage of mice having diarrhea” value ([2]; day 12 after treatment)?
A: 25%

Q: What about the “number of animals exhibiting diarrhea as compared to CPT-11 alone” value [3, 5] of the same compound?
A: reduced

Q: And the “onset of diarrhea as compared to CPT-11 alone” value [3, 5]?
A: significantly delayed

Q: What about the “survival of animals as compared to CPT-11 alone” value ([3]; co-administering hesperetin and CPT-11, both hesperetin doses, FIG. 2C) of the same compound?
A: improved

Q: What about the “loss in body weight induced by CPT-11 administration” value ([3]; co-administration of hesperetin at both doses tested, FIG. 2B) of the same compound?
A: reduced

Q: And the “anti-tumor efficacy of CPT-11 on co-administration” value ([3]; either dose of hesperetin (20 mg/kg or 100 mg/kg))?
A: improved

Q: What about the “day of onset of diarrhea” value ([3]; hesperetin 20 mg/kg with CPT-11) of the same compound?
A: 10 days

Q: And the “day of onset of diarrhea” value ([3]; hesperetin 100 mg/kg with CPT-11)?
A: 12 days

Q: For `O=C1C[C@@H](c2ccc(O)cc2)Oc2cc(O)cc(O)c21` [naringenin], which IC50 (human liver CES1; [4]) is on record?
A: 159 µM

Q: What about the “anti-tumor efficacy … versus CPT-11 only group” value [2] of the same compound?
A: No significant changes
